Experimental data reported in patent US11208642B2, “Microbial syringol utilization” (Alliance for Sustainable Energy, LLC, priority 2018, dated 2021).

Columns and labels:
Assay type in all cases: biochemical
GcoA-F169A [1] = molecular target: T1, GcoA-F169A (Amycolatopsis sp., UniProt P0DPQ7, F169A/H210Q); test: Rate of NADH disappearance (UV/vis) with each substrate; conditions: GcoA-F169A with the named substrate
T1 construct: GST (N, cleaved yes); made in house; host or cells: E. coli Rosetta 2 (DE3)
Description: (§1) To address whether guaiacol and/or syringol would serve as substrates of GcoA-F169A, the disappearance of NADH (UV/vis) and aromatic substrate (HPLC) was monitored over time (FIG. 1). The rates of organic substrate and NADH consumption were robust and the same within error, regardless of whether guaiacol or syringol was used (5.3±0.3 μM guaiacol s^−1 μmol GcoA-F169A^−1, 5.8±0.8 μM NADH s^−1 μmol GcoA-F169A-1; 4.1±0.3 μM syringol s^−1 μmol GcoA-F169A^−1, 5.1±0.8 μM NADH s^−1 μmol GcoA-F169A^−1).
Steady state kinetics of F169A. 0.2 μM each of F169A GcoA and GcoB were dissolved in air-saturated buffer (25 mM HEPES, 50 mM NaCl) in a cuvette at pH 7.5, 25° C. 100 μg/mL catalase was added to each reaction to capture any H2O2 formed during the uncoupled reaction. A saturating amount of NADH (≥5 KM, 300 μM) was added and a background rate of NADH oxidation in air (about 210 μM O2) recorded via continuous scanning of the UV/vis spectrum (Varian Cary 50). 20-300 μM guaiacol or syringol 2-20 mM stock dissolved in DMSO was added and the reaction was monitored via measurement of UV/vis spectra for several minutes. The initial velocity was determined by disappearance of the characteristic NADH absorbance at 340 nm ([…]=6.22 mM^−1 cm^−1). A plot of vi versus the concentration of guaiacol was fit to equation 4 to obtain kcat, KM, and kcat/KM. For specific activity determination, the above method was used but with saturating (300 μM) guaiacol, syringol, or 3-methoxycatechol (3MC), and in the presence of all F169 GcoA mutants (A, H, S, V, I, L). The linear portion of the concentration of NADH versus time was fit and referenced to the amount of GcoA used (0.2 μM). Reported values are the average of at least 3 measurements and reported errors are standard deviations. vi=Vmax[S]/(KM+[S]) Equation (4): […]

GcoA-F169A [2] = molecular target: T1, GcoA-F169A; test: Rate of aromatic substrate disappearance by discontinuous HPLC; conditions: GcoA-F169A/GcoB, substrate disappearance over time
Description: as §1
HPLC for product identification and specific activity measurement. HPLC was used to verify the O-demethylated product of GcoA-F169A GcoA/GcoB with guaiacol, syringol, or 3MC. In addition, discontinuous HPLC was used to determine the specific activity of aromatic […] disappearance.
Analyte analysis of the above end-point reactions (100 μM guaiacol, syringol, or 3MC, or 200 μM syringol) was performed on an Agilent 1100 LC system (Agilent Technologies) equipped with a G1315B diode array detector (DAD). Each sample and standard was injected at a volume of 10 μL onto a Symmetry C18 column 5 μm, 4.6×150 mm column (Waters). The column temperature was maintained at 30° C. and the buffers used to separate the analytes of interest was 0.01% TFA in water (A)/acetonitrile (B). The separation was carried out using a gradient program of: (A)=99% and (B)=1% at time t=0 min; (A)=99% and (B)=1% at time t=2 min, (A)=50% and (B)=50% at t=8 min; (A)=1% and (B)=99% at t=8.01 min; (A)=99% and (B)=1% at t=10.01 min; (A)=99% and (B)=1% at t=11 min. The flow rate was held constant at 1.5 mL min^−1, resulting in a run time of 11 minutes. DAD wavelengths of 210 and 325 nm were used for analysis of the analytes of interest. […] Integrated intensities vs [standards] were plotted and the resulting standard curves used to quantify the reactants and products.
For specific activity determination, 300 μM guaiacol, syringol, or 3MC were added from 0.1 M DMSO stocks to air saturated buffer (25 mM HEPES, 50 mM NaCl, pH 7.5), with a final volume of 1 mL. The concentration of analyte was measured via the above HPLC method. […]

GcoA-F169A and GcoB = molecular target: T2, GcoA-F169A and GcoB (Amycolatopsis sp., UniProt P0DPQ7, F169A/H210Q); test: Uncoupling reactions: H2O2 by Amplex Red/HRP assay referenced to NADH consumed
T2 construct: GST (N, cleaved yes); made in house; host or cells: E. coli Rosetta 2 (DE3)
Description: The ^a in Table 3 notes that 0.2 μM GcoA-F169A and GcoB were reacted with 100 μg catalase, 100 or 200 μM NADH, and 100 μM substrate in 25 mM HEPES, 50 mM NaCl, pH 7.5, 25° C., 210 μM O2. Endpoint analyses were done to quantify formaldehyde produced, which was then referenced to NADH consumed. The ^b in Table 3 notes that the same reaction done above was repeated to quantify H2O2 produced using the Amplex Red/HRP assay. The amount of hydrogen peroxide was then referenced to NADH consumed.
Detection of H2O2 via HRP and Amplex Red assay. A colorimetric assay involving horseradish peroxidase (HRP) and Amplex Red was used to quantify H2O2 in the reaction between GcoA-F169A GcoA/GcoB, NADH and guaiacol, syringol, or 3MC.
Detection of H2O2 via horseradish peroxidase (HRP) and Amplex Red assay. The reaction between 100 μM guaiacol or 3MC with 0.2 μM F169A/GcoB and 100 μM NADH in air-saturated buffer (25 mM HEPES, 50 mM NaCl, pH 7.5) was monitored continuously in a quartz cuvette, using the NADH consumption assay described above. The same thing was done for syringol, but with either 100 or 200 μM NADH. When there was no longer any change in the spectra, e.g., the reaction was completed, 100 μL was removed from the cuvette and pipetted into a 96-well microplate. A 5 mL solution containing 50 μL of 10 mM Amplex Red (prepared in DMSO and stored at −20° C.) and 100 μL of 10 U/mL HRP was made up in the above buffer. One hundred μL of this was added to each of the wells with each reaction sample. The plate was incubated in the dark at room temperature for 30 min, at which point the absorbance at 572 nm was recorded by a Varioskan Lux microplate reader (Thermo Scientific). The absorbance was compared to a standard curve with 0-100 μM H2O2 to quantify the amount of peroxide produced in the reactions.

T2 sequence (P0DPQ7 whole entry F169A/H210Q): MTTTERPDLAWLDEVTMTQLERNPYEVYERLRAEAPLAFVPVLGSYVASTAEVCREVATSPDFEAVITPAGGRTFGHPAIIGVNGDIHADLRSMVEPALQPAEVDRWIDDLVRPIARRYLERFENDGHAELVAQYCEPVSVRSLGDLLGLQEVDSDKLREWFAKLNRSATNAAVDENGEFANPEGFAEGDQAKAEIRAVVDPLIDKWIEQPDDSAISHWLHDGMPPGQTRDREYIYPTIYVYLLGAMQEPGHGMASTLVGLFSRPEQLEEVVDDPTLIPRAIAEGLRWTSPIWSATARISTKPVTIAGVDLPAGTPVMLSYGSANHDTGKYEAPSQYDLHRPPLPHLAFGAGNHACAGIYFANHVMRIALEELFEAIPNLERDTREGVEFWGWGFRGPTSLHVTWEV
T1 sequence (P0DPQ7 whole entry F169A/H210Q): as above

Compound	Rate of NADH consumption (UV/vis) (GcoA-F169A [1])	Rate of organic substrate consumption (HPLC) (GcoA-F169A [2])	% H2O2 produced (GcoA-F169A and GcoB; 100 μM substrate + 100 μM NADH) [%]	% H2O2 produced (GcoA-F169A and GcoB; 100 μM substrate + 200 μM NADH) [%]
COc1cccc(O)c1O [3MC, 3-methoxycatechol]	5.6±0.8 μM NADH s^−1 μmol GcoA-F169A^−1	2.6±0.3 μM s^−1 μmol GcoA-F169A^−1	17 ± 0.2	–
COc1ccccc1O [guaiacol, 2-methoxyphenol]	5.8±0.8 μM NADH s^−1 μmol GcoA-F169A^−1	5.3±0.3 μM s^−1 μmol GcoA-F169A^−1	3.7 ± 0.6	–
COc1cccc(OC)c1O [syringol, 2,6-dimethoxyphenol]	5.1±0.8 μM NADH s^−1 μmol GcoA-F169A^−1	4.1±0.3 μM s^−1 μmol GcoA-F169A^−1	7.4 ± 0.03	7.9 ± 0.5
